Measurements taken from US20250127825A1, “PROBIOTIC COMPOSITIONS AND METHODS OF USE THEREOF FOR WEIGHT LOSS” (priority 2023, published 2025).

Test system: C. elegans worms
Assay: Nile Red lipid staining of worm intestine after 48 hours on experimental diet, non-obesogenic setting
Format: in vivo
Details: for Normalized Nile Red fluorescence, Mean / Normalized Nile Red fluorescence, Median: divided by mean fluorescence of standard diet; for Mean Diff. of fluorescence, Standard E. coli Diet vs. Orlistat / Mean Diff. of fluorescence, Orlistat vs. UF1 100 mg/ml / Mean Diff. of fluorescence, Orlistat vs. UF1 OD7 / Mean Diff. of fluorescence, Standard E. coli Diet vs. UF1 100 mg/ml / Mean Diff. of fluorescence, Standard E. coli Diet vs. UF1 OD7: Holm-Šidák's multiple comparisons test; for Nile Red fluorescence intensity, Mean / Nile Red fluorescence intensity, Median: 48 hours, non-obesogenic; for reduced fat levels compared to the Orlistat control / reduced fat levels compared to the standard E. coli OP50 control diet: reduction
Protocol: In this example the weight loss potential of the UF1 probiotic strain was studied. The UF1 probiotic strain was tested in a non-obesogenic setting by measuring the amount of internal fat in UF1-treated worms compared to no treatment controls. Orlistat treatment was also included as a positive control for fat reduction.
Methodology—Worms were raised to the L4 larval stage using standard plate culture methods. The L4 larvae were then loaded into a microfluidic chip and fed a diet of live E. coli OP50 (20 mg/ml) in liquid nematode growth media (NGM). After 24 hours on the chip, the media for each experimental cohort was switched to the experimental diet. The animals were maintained on each experimental diet for 48 hours before being fixed and stained with Nile Red—a fluorescent dye that binds lipids. A fluorescent microscopy system was then used to image the brightness of the lipid staining in the intestine of the worms, which correlates to the levels of fat in each animal.
Nile Red gives off fluorescence when illuminated with green light. The brightness of the intestinal saining in each worm per trial was quantified. This allows the measurement of the natural variability in fat levels across individuals. ANOVA was then used to determine if the distributions across treatment conditions were statistically different to one another.
All datasets were combined by normalizing the data in each trial by dividing it by the mean fluorescence value of the standard diet. In the combined data, the UF1 diets reduced fat levels compared to the standard E. coli OP50 control diet by approximately 47% and 46%, respectively. The subjects also had reduced fat levels compared to the Orlistat control by approximately 38% and 37%, respectively.

[1] = All trials combined, Orlistat 6 μg/ml
[2] = Trial 1, live OP50 20 mg/ml + Orlistat 6 μg/ml
[3] = Trial 2, live OP50 20 mg/ml + Orlistat 6 μg/ml
[4] = Trial 3, live OP50 20 mg/ml + Orlistat 6 μg/ml
[5] = All trials combined, UF1 100 mg/ml diet
[6] = All trials combined, UF1 OD7 diet
[7] = All trials combined, normalized, UF1 100 mg/ml diet
[8] = All trials combined, normalized, UF1 OD7 diet
[9] = All trials combined, Holm-Šídák's multiple comparisons test
[10] = Combined data, UF1 100 mg/ml diet
[11] = Trial 1, UF1 100 mg/ml diet, mean fluorescence
[12] = Trial 1, UF1 OD7 diet, mean fluorescence
[13] = Trial 2, UF1 100 mg/ml diet, mean fluorescence
[14] = Trial 2, UF1 OD7 diet, mean fluorescence
[15] = Trial 3, UF1 100 mg/ml diet, mean fluorescence

## CCCCCCCCCCC[C@@H](C[C@@H]1OC(=O)[C@H]1CCCCCC)OC(=O)[C@H](CC(C)C)NC=O [Orlistat, reference compound]
[1]
  Normalized Nile Red fluorescence, Mean: 0.8579
  Normalized Nile Red fluorescence, Median: 0.8801
All trials combined, normalized, Orlistat 6 μg/ml
  Percentage Change from Standard Diet: −14.21%
All trials combined, Holm-Šídák's multiple comparisons test, Orlistat 6 μg/ml
  Mean Diff. of normalized fluorescence, Standard E. coli Diet vs. Orlistat: 0.1421
Trial 1, Orlistat 6 μg/ml
  Mean Diff. of fluorescence, Standard E. coli Diet vs. Orlistat: 628190
[2]
  Nile Red fluorescence intensity, Mean: 10354899
  Nile Red fluorescence intensity, Median: 10198510
Trial 1, live OP50 20 mg/ml + Orlistat 6 μg/ml, mean fluorescence
  Percentage Change from Standard Diet: −5.72%
Trial 2, Orlistat 6 μg/ml
  Mean Diff. of fluorescence, Standard E. coli Diet vs. Orlistat: 1621884
[3]
  Nile Red fluorescence intensity, Mean: 9011934
  Nile Red fluorescence intensity, Median: 8938493
Trial 2, live OP50 20 mg/ml + Orlistat 6 μg/ml, mean fluorescence
  Percentage Change from Standard Diet: −15.25%
Trial 3, Orlistat 6 μg/ml
  Mean Diff. of fluorescence, Standard E. coli Diet vs. Orlistat: 9789069
[4]
  Nile Red fluorescence intensity, Mean: 28212711
  Nile Red fluorescence intensity, Median: 23127648
Trial 3, live OP50 20 mg/ml + Orlistat 6 μg/ml, mean fluorescence
  Percentage Change from Standard Diet: −25.76%

## Propionibacterium freudenreichii UF1
[5]
  Normalized Nile Red fluorescence, Mean: 0.5321
  Normalized Nile Red fluorescence, Median: 0.5247
[6]
  Normalized Nile Red fluorescence, Mean: 0.5417
  Normalized Nile Red fluorescence, Median: 0.5207
[7]
  Percentage Change from Orlistat: −37.98%
  Percentage Change from Standard Diet: −46.79%
[8]
  Percentage Change from Orlistat: −36.86%
  Percentage Change from Standard Diet: −45.83%
[9]
  Mean Diff. of normalized fluorescence, Orlistat vs. UF1 100 mg/ml: 0.3259
  Mean Diff. of normalized fluorescence, Orlistat vs. UF1 OD7: 0.3162
  Mean Diff. of normalized fluorescence, Standard E. coli Diet vs. UF1 100 mg/ml: 0.4679
  Mean Diff. of normalized fluorescence, Standard E. coli Diet vs. UF1 OD7: 0.4583
[10]
  reduced fat levels compared to the Orlistat control: approximately 38%
  reduced fat levels compared to the standard E. coli OP50 control diet: approximately 47%
Combined data, UF1 OD7 diet
  reduced fat levels compared to the Orlistat control: ~37%
  reduced fat levels compared to the standard E. coli OP50 control diet: ~46%
Trial 1
  Mean Diff. of fluorescence, Orlistat vs. UF1 100 mg/ml: 5160787
  Mean Diff. of fluorescence, Orlistat vs. UF1 OD7: 5293675
  Mean Diff. of fluorescence, Standard E. coli Diet vs. UF1 100 mg/ml: 5788977
  Mean Diff. of fluorescence, Standard E. coli Diet vs. UF1 OD7: 5921865
Trial 1, UF1 100 mg/ml diet
  less fat than the Orlistat control: approximately 50%
  Nile Red fluorescence intensity, Mean: 5194112
  Nile Red fluorescence intensity, Median: 5124444
  reduced fat levels compared to the standard E. coli OP50 control diet: approximately 53%
[11]
  Percentage Change from Orlistat: −49.84%
  Percentage Change from Standard Diet: −52.71%
Trial 1, UF1 OD7 diet
  less fat than the Orlistat control: ~51%
  Nile Red fluorescence intensity, Mean: 5061224
  Nile Red fluorescence intensity, Median: 5147920
  reduced fat levels compared to the standard E. coli OP50 control diet: ~54%
[12]
  Percentage Change from Orlistat: −51.12%
  Percentage Change from Standard Diet: −53.92%
Trial 2
  Mean Diff. of fluorescence, Orlistat vs. UF1 100 mg/ml: 1399524
  Mean Diff. of fluorescence, Orlistat vs. UF1 OD7: 2435073
  Mean Diff. of fluorescence, Standard E. coli Diet vs. UF1 100 mg/ml: 3021408
  Mean Diff. of fluorescence, Standard E. coli Diet vs. UF1 OD7: 4056957
Trial 2, UF1 100 mg/ml diet
  less fat than the Orlistat control: approximately 16%
  Nile Red fluorescence intensity, Mean: 7612410
  Nile Red fluorescence intensity, Median: 7441676
  reduced fat levels compared to the standard E. coli OP50 control diet: approximately 28%
[13]
  Percentage Change from Orlistat: −15.53%
  Percentage Change from Standard Diet: −28.41%
Trial 2, UF1 OD7 diet
  less fat than the Orlistat control: ~27%
  Nile Red fluorescence intensity, Mean: 6576861
  Nile Red fluorescence intensity, Median: 6691779
  reduced fat levels compared to the standard E. coli OP50 control diet: ~38%
[14]
  Percentage Change from Orlistat: −27.02%
  Percentage Change from Standard Diet: −38.15%
Trial 3
  Mean Diff. of fluorescence, Orlistat vs. UF1 100 mg/ml: 9045435
  Mean Diff. of fluorescence, Standard E. coli Diet vs. UF1 100 mg/ml: 18834504
Trial 3, UF1 100 mg/ml diet
  less fat than the Orlistat control: approximately 32%
  Nile Red fluorescence intensity, Mean: 19167276
  Nile Red fluorescence intensity, Median: 20425415
[15]
  Percentage Change from Orlistat: −32.06%
  Percentage Change from Standard Diet: −49.56%
Trial 3, UF1 diets (UF1 100 mg/ml)
  reduced fat levels compared to the standard E. coli OP50 control diet: approximately 50%
UF1 diets, conclusion in words
  reduction in fat level compared with Orlistat: stronger reduction in fat level than the anti-obesity drug Orlistat
non-obesogenic conditions, conclusion in words
  levels of fat in the intestines of C. elegans worms: reduced the levels of fat
